From ChEMBL document CHEMBL1139248 (Bioorg Med Chem Lett, 2009)

Tests used:
[1] = biological target: T1, Calcitonin gene-related peptide type 1 receptor (Homo sapiens, UniProt O60894+Q16602); experiment: biochemical; assay type: cell-based, HEK293
Description: Displacement of [125I]hCGRP from human CGRP receptor expressed in HEK293 cells coexpressing RAMP1

[2] = biological target: T1, Calcitonin gene-related peptide type 1 receptor; experiment: Antagonistic activity at human CGRP receptor expressed in HEK293 cells coexpressing RAMP1 assessed as inhibition of CGRP-induced cAMP production; assay type: functional, cell-based
[3] = biological target: T1, Calcitonin gene-related peptide type 1 receptor; assay type: functional, cell-based, HEK293

T1 sequence (Q16602 whole entry, one chain of several): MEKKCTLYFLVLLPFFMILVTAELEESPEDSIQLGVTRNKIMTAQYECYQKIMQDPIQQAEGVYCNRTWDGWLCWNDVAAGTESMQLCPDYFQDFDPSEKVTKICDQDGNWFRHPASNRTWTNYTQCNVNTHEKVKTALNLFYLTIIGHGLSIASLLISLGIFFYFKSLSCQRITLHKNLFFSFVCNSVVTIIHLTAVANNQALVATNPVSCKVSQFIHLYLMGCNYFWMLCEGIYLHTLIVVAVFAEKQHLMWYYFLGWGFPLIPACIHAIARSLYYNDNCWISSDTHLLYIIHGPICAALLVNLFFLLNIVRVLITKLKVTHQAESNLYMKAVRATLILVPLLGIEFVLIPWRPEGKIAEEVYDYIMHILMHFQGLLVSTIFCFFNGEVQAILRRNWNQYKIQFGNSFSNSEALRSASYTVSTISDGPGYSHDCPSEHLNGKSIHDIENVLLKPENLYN

Ki [1] [nM]	IC50 [2] [nM]	IC50 [3] [nM]	SMILES
3.7			O=C(Cn1c(=O)n(-c2ccccn2)c2ccccc21)Nc1ccc2c(c1)CC1(C2)C(=O)Nc2ncccc21 (centres undefined)
13	27	220	CN1C(=O)NC(=O)[C@]12Cc1ccc(NC(=O)Cn3c(=O)n(C4CCSCC4)c4ccccc43)cc1C2
0.87	2.5	24	O=C(Cn1c(=O)n(C2CCSCC2)c2ccccc21)Nc1ccc2c(c1)C[C@]1(C2)C(=O)Nc2ncccc21
0.21	0.87	4.1	Cc1cc(C)c2c(c1)n(CC(=O)Nc1ccc3c(c1)C[C@]1(C3)C(=O)Nc3ncccc31)c(=O)n2CC(=O)N(C)C
130			O=C(Cn1c(=O)n(-c2ccccn2)c2ccccc21)Nc1ccc2c(c1)C[C@@]1(C2)N=C(c2cccnc2)NC1=O
2.3	8.6	420	O=C(Cn1c(=O)n(-c2ccccn2)c2ccccc21)Nc1ccc2c(c1)C[C@]1(C2)C(=O)Nc2ncccc21
0.04	0.28	0.62	O=C(Cn1c(=O)n2c3c(cccc31)NC(=O)C2)Nc1ccc2c(c1)C[C@]1(C2)C(=O)Nc2ncccc21
270			O=C(Cn1c(=O)n(-c2ccccn2)c2ccccc21)Nc1ccc2c(c1)CC1(CCNC1=O)C2 (centres undefined)
520			O=C(Cn1c(=O)n(-c2ccccn2)c2ccccc21)Nc1ccc2c(c1)CC1(C2)C(=O)Nc2ccccc21 (centres undefined)
1.2	5.2	27	O=C(Cn1c(=O)n(C2CCOC2)c2ccccc21)Nc1ccc2c(c1)C[C@]1(C2)C(=O)Nc2ncccc21 (some centres undefined)
34			O=C(Cn1c(=O)n(-c2ccccn2)c2ccccc21)Nc1ccc2c(c1)C[C@@]1(C2)N=C(c2ccccc2)NC1=O
2600			O=C(Cn1c(=O)n(-c2ccccn2)c2ccccc21)Nc1ccc2c(c1)C[C@@]1(C2)N=C(C2CC2)NC1=O
35	57	160	CN1C(=O)NC(=O)[C@]12Cc1ccc(NC(=O)CN3C(=O)C4(CCOCC4)c4ccccc43)cc1C2
2700			O=C(Cn1c(=O)n(-c2ccccn2)c2ccccc21)Nc1ccc2c(c1)CC1(CCCNC1=O)C2 (centres undefined)
96			O=C1CC2(Cc3ccc(NC(=O)Cn4c(=O)n(-c5ccccn5)c5ccccc54)cc3C2)C(=O)N1 (centres undefined)
		170	CN1C(=O)NC(=O)[C@]12Cc1ccc(NC(=O)Cn3c(=O)n(C4CCOC4)c4ccccc43)cc1C2 (some centres undefined)
0.61	1.6	35	O=C(Cn1c(=O)n(-c2ccncn2)c2ccccc21)Nc1ccc2c(c1)C[C@]1(C2)C(=O)Nc2ncccc21
16	10	74	CN1C(=O)NC(=O)[C@]12Cc1ccc(NC(=O)Cn3c(=O)n(-c4ccncn4)c4ccccc43)cc1C2
1.7	5.7	39	O=C(CN1C(=O)C2(CCOCC2)c2ccccc21)Nc1ccc2c(c1)C[C@]1(C2)C(=O)Nc2ncccc21
230			O=C(Cn1c(=O)n(-c2ccccn2)c2ccccc21)Nc1ccc2c(c1)C[C@@]1(C2)NC(=O)NC1=O

SMILES	Ki [1] [nM]	IC50 [2] [nM]	IC50 [3] [nM]
O=C(N[C@@H]1N=C(c2ccccc2)c2ccccc2N(CC(F)(F)F)C1=O)N1CCC(n2c(=O)[nH]c3ccccc32)CC1	2200		
O=C1CN(C2CCN(C(=O)N[C@@H]3N=C(c4ccccc4)c4ccccc4N(CC(F)(F)F)C3=O)CC2)C(=O)N1	520		
O=C(N[C@@H]1N=C(c2ccccc2)c2ccccc2N(CC(F)(F)F)C1=O)N1CCC(n2c(=O)[nH]c3ncccc32)CC1	22		730
